Test system: cornroot worm (Diabrotica balteata)
Experiment: Residual soil activity against cornroot worm larvae, mortality after 48 hours, LC50 by probit analysis
Assay type: in vivo
Conditions: sandy soil, 10% moisture, 22 g, 20° C., 10 larvae, two replicates, 5 dose levels
Procedure: Residual soil activity of the compounds of Examples 25 to 40 was assessed against cornroot worm (Diabrotica balteata) using the following technique.
A known quantity of test compound dissolved in 1.0 ml acetone was applied evenly to a standard amount (22 g) of a sandy soil with a 10% moisture content. After 1 hour, 10 larvae were introduced. The temperature was maintained at 20° C. ±1° C. and mortality assessed after 48 hours. Two replicates of 10 larvae were used at each of 5 dose levels per compound. LC50 values were calculated as concentration of insecticide in the standard amount of soil using probit analysis.

| Structure (SMILES) | Residual Soil Activity (LC50) |
| --- | --- |
| Fc1ccc(C2(/C=C/Cc3ccc(F)c(Oc4ccccc4)c3)CC2)cc1 [Comp C, 1-(4-fluorophenyl)-1-(E-3-(4-fluoro-3-phenoxyphenyl)prop-1-enyl)-cyclopropane, reference compound] | 0.059 ppm |
| F/C(=C\C1(c2ccc(F)cc2)CC1)Cc1cccc(Oc2ccccc2)c1 [Example 28, 1-(2-Fluoro-3-(3-phenoxyphenyl)prop-1-enyl)-1-(4-fluorophenyl)cyclopropane] | 0.015 ppm |
| Fc1ccc(C/C=C/C2(c3ccc(Cl)cc3)CC2)cc1Oc1ccccc1 [Comp A, 1-(4-chlorophenyl)-1-(E-3-(4-fluoro-3-phenoxyphenyl)prop-1-enyl)-cyclopropane, reference compound] | 0.68 ppm |
| F/C(=C\C1(c2ccc(C(F)(F)F)cc2F)CC1)Cc1cccc(Oc2ccccc2)c1 [Example 29, 1-(2-Fluoro-3-(3-phenoxyphenyl)prop-1-enyl)-1-(2-fluoro-4-trifluoromethylphenyl) cyclopropane] | 0.030 ppm |
| F/C(=C\C1(c2ccc3c(c2)OCO3)CC1)Cc1cccc(Oc2ccccc2)c1 [Example 30, 1-(2-Fluoro-3-(3-phenoxyphenyl)prop-1-enyl)-1-(3,4-methylenedioxyphenyl)cyclopropane] | 0.021 ppm |
| F/C(=C\C1(c2ccc(OC(F)F)cc2)CC1)Cc1cccc(Oc2ccccc2)c1 [Example 32, 1-(4-Difluoromethoxyphenyl)-1-(2-fluoro-3-(3-phenoxyphenyl)prop-1-enyl)cyclopropane] | 0.055 ppm |
| F/C(=C\C1(c2ccc(Cl)cc2)CC1)Cc1cccc(Oc2ccccc2)c1 [Example 25, 1-(4-Chlorophenyl)-1-(2-fluoro-3-(3-phenoxyphenyl)prop-1-enyl)cyclopropane] | 0.031 ppm |
| F/C(=C\C1(c2ccc3c(c2)OCO3)CC1)Cc1ccc(F)c(Oc2ccccc2)c1 [Example 37, 1-(2-Fluoro-3-(4-fluoro-3-phenoxyphenyl)prop-1-enyl)-1-(3,4-methylenedioxyphenyl)cyclopropane] | 0.055 ppm |
| FC(F)(F)Oc1ccc(C2(/C=C/Cc3cccc(Oc4ccccc4)c3)CC2)cc1 [Comp D, 1-(4-trifluoromethoxyphenyl)-1-(E-3-(3-phenoxyphenyl)prop-1-enyl)-cyclopropane, reference compound] | 0.059 ppm |
| F/C(=C\C1(c2ccc(OC(F)(F)F)cc2)CC1)Cc1cccc(Oc2ccccc2)c1 [Example 27, 1-(2-Fluoro-3-(3-phenoxyphenyl)prop-1-enyl)-1-(4-trifluoromethoxy-phenyl)cyclopropane] | 0.038 ppm |
| F/C(=C\C1(c2ccc(F)cc2)CC1)Cc1ccc(F)c(Oc2ccccc2)c1 [Example 35, 1-(2-Fluoro-3-(4-fluoro-3-phenoxyphenyl)prop-1-enyl)-1-(4-fluorophenyl)cyclopropane] | 0.032 ppm |
| F/C(=C\C1(c2ccc(OC(F)F)cc2)CC1)Cc1ccc(F)c(Oc2ccccc2)c1 [Example 39, 1-(4-Difluoromethoxyphenyl)-1-(2-fluoro-3-(4-fluoro-3-phenoxyphenyl)prop-1-enyl)cyclopropane] | 0.033 ppm |
| CCOc1ccc(C2(/C=C(\F)Cc3ccc(F)c(Oc4ccccc4)c3)CC2)cc1 [Example 34, 1-(4-Ethoxyphenyl)-1-(2-fluoro-3-(4-fluoro-3-phenoxyphenyl)prop-1-enyl)cyclopropane] | 0.031 ppm |
| F/C(=C\C1(c2ccc(C(F)(F)F)cc2F)CC1)Cc1ccc(F)c(Oc2ccccc2)c1 [Example 36, 1-(2-Fluoro-3-(4-fluoro-3-phenoxyphenyl)prop-1-enyl)-1-(2-fluoro-4-trifluoromethylphenyl)cyclopropane] | 0.021 ppm |
| CCOc1ccc(C2(/C=C(\F)Cc3cccc(Oc4ccccc4)c3)CC2)cc1 [Example 26, 1-(4-Ethoxyphenyl)-1-(2-fluoro-3-(3-phenoxyphenyl)prop-1-enyl)cyclopropane] | 0.029 ppm |
| CCOc1ccc(C2(/C=C/Cc3ccc(F)c(Oc4ccccc4)c3)CC2)cc1 [Comp B, 1-(4-ethoxyphenyl)-1-(E-3-(4-fluoro-3-phenoxyphenyl)prop-1-enyl)-cyclopropane, reference compound] | 0.43 ppm |

Reference: patent publication US5763700A, “Pesticidal fluoroolefins” (British Technology Group Limited, priority 1992, dated 1998)
